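Protocol summary: plate cells (96-well), add compound at 5 concentrations, incubate 48 h, interpolate endpoints linearly. Abbreviation: GI50, concentration required for 50% inhibition of growth. At the TGI there is no net growth.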
Legend:
Assay in all cases: inhibition of tumour cell growth, NCI panel, 48 h
SNB-75 CNS = system: SNB-75 CNS
HOP-62 NSCLC = system: HOP-62 NSCLC
MDA-MB-435 = system: MDA-MB-435
SNB-19 CNS = system: SNB-19 CNS
SR leukemia = system: SR leukemia
SF-539 CNS = system: SF-539 CNS
786-0 renal = system: 786-0 renal
OVCAR-5 ovarian = system: OVCAR-5 ovarian
EKVX NSCLC = system: EKVX NSCLC
HCC-2998 colon = system: HCC-2998 colon

| Structure (SMILES) | GI50 (SNB-75 CNS) [µM] | TGI (SNB-75 CNS) [µM] | GI50 (HOP-62 NSCLC) [µM] | TGI (HOP-62 NSCLC) [µM] | GI50 (MDA-MB-435) [µM] | TGI (MDA-MB-435) [µM] | GI50 (SNB-19 CNS) [µM] | TGI (SNB-19 CNS) [µM] | GI50 (SR leukemia) [µM] | TGI (SR leukemia) [µM] | GI50 (SF-539 CNS) [µM] | TGI (SF-539 CNS) [µM] | GI50 (786-0 renal) [µM] | TGI (786-0 renal) [µM] | GI50 (OVCAR-5 ovarian) [µM] | TGI (OVCAR-5 ovarian) [µM] | GI50 (EKVX NSCLC) [µM] | TGI (EKVX NSCLC) [µM] | GI50 (HCC-2998 colon) [µM] | TGI (HCC-2998 colon) [µM] |
| --- | --- | --- | --- | --- | --- | --- | --- | --- | --- | --- | --- | --- | --- | --- | --- | --- | --- | --- | --- | --- |
| NCCCn1c2c(c3ccc([N+](=O)[O-])cc3c1=O)C(=O)c1cc(I)ccc1-2 | 0.95 | 3.9 | 0.0211 | 1.75 | 0.223 | 1.85 | < 0.01 | 1.61 | < 0.01 | 0.929 | 0.0435 | 1.21 | 0.021 | 1.14 | 0.556 | 1.95 | 0.79 | 2.32 | 0.307 | 1.71 |
| COc1cc2c3c(n(C)c(=O)c2cc1OC)-c1cc2c(cc1C3=O)OCO2 |  | 22.6 |  | > 55 |  | > 100 |  | > 100 |  | 11.8 |  | 23.9 |  | > 77.7 |  | > 100 |  | > 100 |  | > 100 |
| O=[N+]([O-])c1ccccc1N=Nc1c(O)[nH]c2c(Cl)cc(Cl)cc12 |  | 25.6 |  | > 23.1 |  | > 100 |  | > 100 |  | 22.6 |  | 50.2 |  | 39 |  | > 100 |  | 99.5 |  | > 100 |
| CNc1cc2oc(=O)cc(C)c2cc1C |  | > 100 |  | > 100 |  | > 100 |  | > 100 |  | > 100 |  | > 100 |  | > 100 |  | > 100 |  | > 100 |  | > 100 |
| Cc1cccc(NC2=C(Cl)C(=O)c3nc(C)ccc3C2=O)c1 | 2.73 | 7.33 | 0.529 | 2.88 | 0.218 | 0.469 | 1.29 | 10.3 | 1.22 | > 100 | 1.39 | 2.75 | 1.79 | 3.36 | 1.82 | 3.61 | 1.47 | 2.8 | 1.69 | 3.22 |
| Nc1nc(Cl)nc2c1ncn2C1CC(O)C(CO)O1 (configuration not stated) |  | > 91.9 |  | 6.8 | 0.54 | > 100 |  | > 100 | 5.66 | > 100 |  | 76.8 | 2.45 | > 100 |  | > 100 |  | 34.5 |  | > 100 |
| CNCCCNc1ccnc2cc(Cl)ccc12 | 16.4 | 82 | 22.4 | > 100 | 14.4 | 28.4 | 36.1 | > 100 | 22.5 | 70.8 | 17 | 33.1 | 32.9 | > 100 | 21.1 | 72 |  |  | 28.7 | > 100 |
| CCN(CCNS(C)(=O)=O)c1ccc(N)c(C)c1 | 18.8 | 37.8 | 16.2 | 31.1 | 2.75 | 6.91 | 17.7 | 33.8 | 5.14 | 23.8 | 9.08 | 21.6 | 9.76 | 21.9 | 13.6 | 28.2 |  |  | 16.8 | 33.9 |
| O=C1c2cccc3cccc(c23)C(=O)N1CCN(CCO)CCO |  | > 100 |  | > 100 |  |  |  | > 100 |  | 44.9 |  | 86.5 |  | > 100 |  | 49.1 |  | 90.9 |  | 84.9 |
| FC(F)(F)c1ccc2nc(NCc3ccccc3)c(-c3ccccc3)nc2c1 |  | > 100 |  | > 100 |  |  |  | > 100 |  | 80.8 |  | > 100 |  | 53.1 |  | > 100 |  | > 100 |  | > 100 |
| CCN(Cc1c(F)cccc1OC)c1ccc(CO)c(Cl)c1 | 14.5 | 46.2 | 2.69 | 25.5 | 16 | 39 | 24.2 | > 100 | 18.3 | 55.5 | 16.6 | 33.1 | 16.7 | 38.9 | 0.0371 | 0.242 |  |  | 7.33 | 22.3 |
| O=C1C=C(c2c(O)ccc3ccccc23)c2cc(O)ccc2C1=O |  | 42.6 |  | 35.4 |  |  |  | 31.3 |  | 42.9 |  | 39.3 |  | 33.9 |  | 35.5 |  | 38.2 |  | 33.6 |
| COc1ccc(-c2c(C#N)c(N3CCOCC3)nc3[nH]c(=S)[nH]c(=S)c23)cc1OC |  |  | 83.2 | > 100 | 54.8 | > 100 | > 100 | > 100 | 11.5 | > 100 | 39.1 | > 100 | 30.7 | > 100 | > 100 | > 100 | > 100 | > 100 | 36 | > 100 |
| COc1ccc(Cl)cc1NC(=O)c1ccc(NC2=C(Cl)C(=O)N(Cc3ccccc3)C2=O)cc1 |  |  | > 100 | > 100 | 99.7 | > 100 | > 100 | > 100 | 2.76 | 9.87 | > 100 | > 100 | > 100 | > 100 | > 100 | > 100 | > 100 | > 100 | 14.1 | 28.8 |
| COc1ccc(-c2cc(=O)oc3c4c(ccc23)OCN(Cc2ccc(F)cc2)C4)cc1 | 6.62 | 25.3 | 14.4 | 30.8 | 16.5 | 34.7 | 15.6 | 36.4 | 13 | 39.9 | 15.8 | 32.5 | 15.1 | 32.8 | 18.4 | 45.1 |  |  | 19.2 | 37 |
| CCCCCCCCCCCC[N+]12CC[N+](CCN)(CC1)CC2 |  | > 100 |  | > 100 |  |  |  | 64.3 |  | 81.7 |  | > 100 |  | > 100 |  | 38.1 |  | > 100 |  | > 100 |

Source: PubChem BioAssay (NCI)
